Experimental data published in US10344019B2 (priority 2010, dated 2019).
pEC50: −log10 of the molar value. Like-named read-outs stand apart in the source and are kept apart here.

How the values were obtained:
Format in all cases: cell-based
[1] = tested on: HCV 1b RLuc cells (dicistronic genotype 1b Con1 replicon, RLuc reporter); experiment: microbe, parasite or virus in culture; conditions: Hepatitis C virus, read-out: 1b (nM)
In short: (§1)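 Replicon cells stably carrying the listed RLuc-encoding dicistronic replicons were seeded and treated with DMSO serial dilutions of compound (10 mM stocks) diluted into culture medium. After 72 h, cells were lysed and Renilla luciferase activity measured. EC50 was derived by non-linear regression.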

[2] = tested on: HCV 2a JFH-1 Rluc cells (dicistronic genotype 2a JFH-1 replicon, RLuc reporter); experiment: microbe, parasite or virus in culture; conditions: Hepatitis C virus, read-out: 2a JFH
In short: as §1

[3] = tested on: HCV 4a Rluc cells (NS5A chimeric genotype 1b Con1 replicon with genotype 4a NS5A gene); experiment: microbe, parasite or virus in culture; conditions: Hepatitis C virus, read-out: 4a
In short: as §1

[4] = tested on: HCV 1a RLuc cells (dicistronic genotype 1a H77 replicon, RLuc reporter); experiment: microbe, parasite or virus in culture; conditions: Hepatitis C virus, read-out: 1a
In short: as §1

[5] = tested on: HCV 2b Rluc cells (NS5A chimeric genotype 2a JFH-1 replicon with genotype 2b MD2b-1 NS5A gene, M31 present); experiment: microbe, parasite or virus in culture; conditions: Hepatitis C virus, read-out: 2b
In short: as §1

[6] = tested on: HCV 3a RLuc cells (NS5A chimeric genotype 1b Con1 replicon with consensus genotype 3a NS5A gene); experiment: microbe, parasite or virus in culture; conditions: Hepatitis C virus
In short: as §1

[7] = tested on: Q30R in genotype 1a NS5A, 1a Rluc replicon transfected into Huh-7 cured-51 cells; experiment: HCV replicon assay, resistance mutant 1a Q30R; conditions: Hepatitis C virus, Huh-7, read-out: 1a Q30R
In short: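 Q30R introduced into genotype 1a H77 RLuc replicon by site-directed mutagenesis; replicon RNA transfected into Huh-7 cured-51 cells.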

[8] = tested on: HCV 2a Rluc cells (NS5A chimeric genotype 2a JFH-1 replicon with genotype 2a J6 strain NS5A gene, M31 present); experiment: HCV replicon reporter assay, genotype 2a J6 (M31 present); conditions: Hepatitis C virus, read-out: 2a J6
In short: as §1

[9] = genotype 2a JFH-1 RLuc replicon
[10] = read-out: 3a, genotype 3a NS5A chimeric replicon
[11] = read-out: 3a, genotype 3a replicon

Structure (SMILES)	EC50 [1] [nM]	pEC50 [2, 9]	pEC50 [3]	pEC50 ([4]; genotype 1a H77 RLuc replicon)	pEC50 [5]	pEC50 [6, 10]	pEC50 [7]	pEC50 [8]	pEC50 ([2]; genotype 2a JFH-1 replicon)	pEC50 ([4]; genotype 1a replicon)	pEC50 [6, 11]
COC[C@H]1C[C@@H](c2nc3ccc4cc5c(cc4c3[nH]2)OCc2cc(-c3cnc([C@@H]4C[C@H](C)CN4C(=O)[C@@H](NC(=O)OC)C(C)C)[nH]3)ccc2-5)N(C(=O)[C@H](NC(=O)OC)c2ccccc2)C1 [Example 555]	0.021	9.00 to 12.00	9.00 to 12.00	9.00 to 12.00	9.00 to 12.00	9.00 to 12.00	9.00 to 12.00	9.00 to 12.00	–	–	–
CC#Cc1cc2nc([C@@H]3CCCN3C(=O)[C@@H](NC(=O)OC)C(C)C)[nH]c2c2ccc(-c3ccc4c(ccc5nc([C@@H]6C[C@H](COC)CN6C(=O)[C@H](NC(=O)OC)c6ccccc6)[nH]c54)c3)cc12 [Example 581]	0.007	9.00 to 12.00	9.00 to 12.00	9.00 to 12.00	9.00 to 12.00	9.00 to 12.00	9.00 to 12.00	9.00 to 12.00	–	–	–
COC[C@H]1C[C@@H](c2nc3ccc4cc(-c5ccc6c(ccc7nc([C@@H]8C[C@H]9C[C@H]9N8C(=O)[C@@H](NC(=O)OC)C(C)C)[nH]c76)c5)ccc4c3[nH]2)N(C(=O)[C@H](NC(=O)OC)c2ccccc2)C1 [Example 472]	0.01	–	9.00 to 12.00	–	9.00 to 12.00	–	9.00 to 12.00	9.00 to 12.00	9.00 to 12.00	9.00 to 12.00	9.00 to 12.00
COC[C@H]1C[C@@H](c2nc3ccc4cc(-c5ccc6c(ccc7nc([C@@H]8C[C@H](C)CN8C(=O)[C@@H](NC(=O)OC)C(C)C)[nH]c76)c5)ccc4c3[nH]2)N(C(=O)[C@@H](NC(=O)OC)C(C)C)C1 [Example 568]	0.021	9.00 to 12.00	9.00 to 12.00	9.00 to 12.00	9.00 to 12.00	9.00 to 12.00	9.00 to 12.00	9.00 to 12.00	–	–	–
COC[C@H]1C[C@@H](c2nc3ccc4cc(-c5ccc6c(ccc7nc([C@@H]8C[C@H](SCC(F)(F)F)CN8C(=O)[C@@H](NC(=O)OC)C(C)C)[nH]c76)c5)ccc4c3[nH]2)N(C(=O)[C@H](NC(=O)OC)c2ccccc2)C1 [Example 584]	0.015	9.00 to 12.00	9.00 to 12.00	9.00 to 12.00	9.00 to 12.00	9.00 to 12.00	9.00 to 12.00	9.00 to 12.00	–	–	–
COC[C@H]1C[C@@H](c2nc3ccc4cc5c(cc4c3[nH]2)OCc2cc(-c3cnc([C@@H]4C[C@H](C)CN4C(=O)[C@@H](NC(=O)OC)C(C)C)[nH]3)ccc2-5)N(C(=O)[C@@H](NC(=O)OC)C(C)C)C1 [Example 562]	0.019	9.00 to 12.00	9.00 to 12.00	9.00 to 12.00	9.00 to 12.00	9.00 to 12.00	9.00 to 12.00	9.00 to 12.00	–	–	–
COC[C@H]1C[C@@H](c2nc3ccc4cc(-c5ccc6c(ccc7nc([C@@H]8CCCN8C(=O)[C@@H](NC(=O)OC)C(C)C)[nH]c76)c5)ccc4c3[nH]2)N(C(=O)[C@@H](NC(=O)OC)C(C)C)C1 [Example 398]	0.023	–	9.00 to 12.00	–	9.00 to 12.00	–	9.00 to 12.00	9.00 to 12.00	9.00 to 12.00	9.00 to 12.00	9.00 to 12.00
COC[C@H]1C[C@@H](c2nc3ccc4cc(-c5ccc(-c6cnc([C@@H]7CCCN7C(=O)[C@@H](NC(=O)OC)C(C)C)[nH]6)cc5)ccc4c3[nH]2)N(C(=O)[C@H](NC(=O)OC)c2ccccc2)C1 [Example 433]	0.02	–	9.00 to 12.00	–	9.00 to 12.00	–	9.00 to 12.00	9.00 to 12.00	9.00 to 12.00	9.00 to 12.00	9.00 to 12.00
CCC(=O)N[C@@H](C(=O)N1[C@@H]2CC[C@@H](C2)[C@H]1c1nc2ccc3cc(-c4ccc5c(ccc6nc([C@@H]7CCCN7C(=O)[C@@H](NC(=O)OC)C(C)C)[nH]c65)c4)ccc3c2[nH]1)c1ccccc1 [Example 418]	0.035	–	9.00 to 12.00	–	9.00 to 12.00	–	7.36 to 9.00	9.00 to 12.00	9.00 to 12.00	9.00 to 12.00	9.00 to 12.00
